These are literature values, as cited in PMC9302689 (British Journal of Clinical Pharmacology, 2022).

The conditions of series [1]: cited from earlier work.
For series [2] the following is noted: cited from earlier work. This is another data set of the same source.

For the molecule `CN(C)CCC[C@@]1(c2ccc(F)cc2)OCc2cc(C#N)ccc21` [escitalopram], in series [1], the “Effect on serum cortisol and prolactin levels” value is given as “increase levels of these hormones”.
Take `CNC1(c2ccccc2Cl)CCCCC1=O` (stereo not shown) [Ketamine]: the NeuroCart effects result in series [2] is “decreased saccadic peak velocity, adaptive tracking and alertness and increased body sway and psychedelic effects”.
Turning to `CN(C)CCCC1(c2ccc(F)cc2)OCc2cc(C#N)ccc21` (stereo not shown) [citalopram], in series [1], the “Effect on serum cortisol and prolactin levels” value was “increase levels of these hormones”.
As to Buprenorphine, the NeuroCart effects result in series [2] is “decreased adaptive tracking and saccadic peak velocity and increased body sway”.
